# Measurements: publication PMC6977516, “An assessment of the interaction for three Chrysanthemum indicum flavonoids and α‐amylase by surface plasmon resonance” (Food Science & Nutrition, 2019)
# Where two headings read alike, the source gives them in different places. Marks after values point to notes of the source that are not given here.
# Columns and labels:
# α-amylase [1] = molecular target: T1, α-amylase (Bacillus subtilis, UniProt P00691); assay: SPR: effect of pH and salt on the interaction between flavonoids and α-amylase; type: binding; settings: flavonoid 200 μM; for optimal CaCl2 concentration for binding with α-amylase: CaCl2 0.04-0.2 M; for optimal MgCl2 concentration for binding with α-amylase: MgCl2 0.02-0.25 M
# T1 construct: purchased Shanghai Ryon Biological Technology Co. Ltd
# T1 sequence (P00691 42-659): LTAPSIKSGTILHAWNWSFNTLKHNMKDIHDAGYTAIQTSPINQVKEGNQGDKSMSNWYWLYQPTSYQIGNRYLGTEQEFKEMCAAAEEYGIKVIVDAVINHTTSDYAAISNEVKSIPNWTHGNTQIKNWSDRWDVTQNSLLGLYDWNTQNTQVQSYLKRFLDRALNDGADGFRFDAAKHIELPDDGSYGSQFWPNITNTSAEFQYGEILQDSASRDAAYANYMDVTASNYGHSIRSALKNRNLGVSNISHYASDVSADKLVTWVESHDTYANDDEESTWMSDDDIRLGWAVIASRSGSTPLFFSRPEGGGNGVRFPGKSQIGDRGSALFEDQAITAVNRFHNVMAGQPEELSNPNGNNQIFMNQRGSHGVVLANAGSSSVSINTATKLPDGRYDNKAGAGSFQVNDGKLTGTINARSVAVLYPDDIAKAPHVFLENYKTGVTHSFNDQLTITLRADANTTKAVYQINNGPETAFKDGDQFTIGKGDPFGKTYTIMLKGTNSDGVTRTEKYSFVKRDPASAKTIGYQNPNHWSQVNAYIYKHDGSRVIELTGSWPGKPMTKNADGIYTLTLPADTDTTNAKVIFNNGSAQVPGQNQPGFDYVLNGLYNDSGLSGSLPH
# Description: The effect of pH on the interaction between three flavonoids and α‐amylase was carried out within the pH range (3–9) based on the method described in the above experiment. As is known to all, metal ions play a crucial role in maintaining normal physiological function of the α‐amylase. Moreover, salt is also widely used in food industry. To evaluate whether KCl, MgCl2, and CaCl2 can interfere with the interaction between flavonoids and α‐amylase, a series of 200 μM flavonoids with a various concentrations of KCl (0.02–0.3 M), MgCl2 (0.02–0.25 M), or CaCl2 (0.04–0.2 M) solutions were flowed over the chip surface modified with α‐amylase, respectively.
# [2] = DPPH radical assay without or with α-amylase; settings: mean ± RSD (n = 3); for Inhibition (%) of antioxidant activity by binding to α-amylase: (add α-amylase IC50 − not add α-amylase IC50)/not add α-amylase IC50
# Description: The DPPH assay was performed to assess effect of α‐amylase on antioxidant activity of three flavonoids as following procedure (Kim et al., 2014). 2 mM DPPH solution was prepared by dissolving 0.0787 g of DPPH in 100 ml of anhydrous ethanol and stored at −20°C. α‐Amylase (300 μM) and three flavonoids (2.5–125 μM) were prepared with PBS (pH = 6.0) and ethanol, respectively. Samples were prepared by mixing flavonoids solution (without or with 10 μl α‐amylase), 100 μl of DPPH, and anhydrous ethanol. Then, samples were incubated for 10 min at room temperature. Absorbance at 517 nm was measured in the spectrophotometer. DPPH radical scavenging activity was calculated as follows (Liu et al., 2017):(4) DPPHradicalscavengingactivity(%)=1-Ai-Aj/Ac×100% in which AC is the absorbance of the DPPH (100 μl DPPH and 100 μl ethanol), Ai is the absorbance of the DPPH and sample (100 μl DPPH, 50 μl flavonoids, and 50 μl ethanol, or 100 μl DPPH, 50 μl flavonoids, 10 μl α‐amylase, and 40 μl ethano1), and Aj is the absorbance of the blank sample (50 μl flavonoids and 150 μl ethanol). All experiments were carried out in triplicate, and the results were expressed as mean ± RSD. IC50 values were obtained based on plotting the percentage of DPPH radical scavenging activity against the flavonoids concentration.
# α-amylase [3] = molecular target: T1, α-amylase; assay: SPR binding assay of flavonoids to immobilized α-amylase; settings: for kon: pH 6, read-out: Ka (association rate constant); for koff: pH 6, read-out: Kd (dissociation rate constant) × 10^–3
# Description: A commercial BI‐2000 SPR instrument (Biosensing Instrument Inc.) was used for all SPR experiments in this study. The bare Au sensor chip was obtained from Biosensing Instrument Inc. The preparation of Au sensor chip can be referred to our previous published paper (Liu et al., 2014). A flow delivery system incorporated in the BI‐SPR platform pumped samples onto the SPR sensor chip at a flow rate of 10 μl/min. The 0.01 M PBS (pH = 6.0) buffer was used as the running buffer. The BI‐SPR 2000 control software (version 2.2.0.) was used to perform instrument operation and data processing. The Varioskan Flash (Multiskan GO 1510, Thermo Fisher Scientific) was used for the α‐amylase inhibitory activity and DPPH radical assays.
# Binding assay of three flavonoids to α‐amylase was carried out using the SPR sensor. The immobilization of α‐amylase on the chip surface was performed using a standard amine coupling procedure as described previously (Liu, Luo, Li, She, & Gao, 2017). […] After the stable baseline was obtained, different concentrations of flavonoids (50–800 μM) were injected over the chip surface coated with α‐amylase, respectively. The SPR angle was monitored until the baseline stabilization. To enable reuse of the SPR chip, the chip surface could be regenerated using 2 mM NaOH after each measurement. Regeneration parameters were based on the strength of interaction between the analyte and α‐amylase. The chip surface was rinsed by PBS between each step. All the experiments were repeated three times, and kinetic parameters (ka, kd) were deduced by nonlinear fitting of the primary sensorgram data based on the 1:1 Langmuir‐binding model using the BI‐SPR 2000 control software (version 2.2.0.). The model has been widely used in protein–ligand binding analysis and can be calculated through the following formula (Gombau et al., 2019; Islam, Shen, Gurgel, Rojas, & Carbonell, 2014; Lee, Jeong, Jones, & Kim, 2011):(1) dR/dt=kaCRmax-R-kdR where R is the SPR signal at time t, and C is the concentration of the analyte. R max is the maximum analyte binding capacity in SPR signal. ka is the association rate constant and kd is the dissociation rate constant.
# α-amylase [4] = molecular target: T1, α-amylase; assay: Inhibition kinetics of α-amylase by Lineweaver-Burk plots; type: biochemical; settings: for Inhibitory type: Lineweaver-Burk plots, starch 0.25-1.25 mg/ml
# Description: To further explore the inhibitory type of three flavonoids on α‐amylase, kinetic analysis was carried out by using Lineweaver–Burk plots. Starch was used as substrate, and the inhibition kinetics of α‐amylase was evaluated by varying four different concentrations (0.25, 0.50, 1.00, and 1.25 mg/ml) of starch in the absence or presence of three flavonoids. The Lineweaver–Burk plots of the three flavonoids can be obtained from the double‐reciprocal plots between 1/[S] (starch concentration) and 1/[V] (reaction rate). Besides, different concentrations of flavonoids (0, 5, and 10 μM) were used and the three Lineweaver––Burk plots for each flavonoid can be obtained. The Ki (inhibition constant) value was obtained from the least‐squares regression line of the slopes of Lineweaver–Burk plots versus the corresponding flavonoid concentrations [I] (Kandra, Gyémánt, Zajácz, & Batta, 2004; Yang et al., 2014). The formula is(3) slope=Km/Vmax1+[I]/Ki Ki = intercept of Equation (3) on x axis (Yang et al., 2014)
# [5] = with 10 μl α-amylase (300 μM), read-out: Add α-amylase IC50 (DPPH radical scavenging)
# [6] = without α-amylase, read-out: Not add α-amylase IC50 (DPPH radical scavenging)
compound,measurement,setting,value
"O=c1cc(-c2ccc(O)c(O)c2)oc2cc(O)cc(O)c12 [Luteolin, luteolin]",optimal CaCl2 concentration for binding with α-amylase,α-amylase [1],0.120 M
same,optimal MgCl2 concentration for binding with α-amylase,α-amylase [1],0.150 M
same,Inhibition (%) of antioxidant activity by binding to α-amylase,[2],49.93 ± 0.037^c %
same,IC50,[2]; [5],75.2 µM
same,IC50,[2]; [6],50.1 µM
same,Kd,"α-amylase [3]; SPR, 1:1 model, pH 6.0, mean ± RSD (n = 3), read-out: KD (equilibrium dissociation constant)",1970 ± 120 µM
same,kon,α-amylase [3],4.12 ± 0.1 M⁻¹ s⁻¹
same,koff,α-amylase [3],0.00808 ± 0.00011 s⁻¹
same,Inhibitory type,α-amylase [4],Noncompetitive
same,Ki,"α-amylase [4]; slopes of Lineweaver-Burk plots vs flavonoid concentration (0, 5, 10 μM), starch substrate, read-out: Ki",26.8 µM
"COc1ccc(-c2cc(=O)c3c(O)cc(O)cc3o2)cc1 [Acacetin, acacetin]",optimal CaCl2 concentration for binding with α-amylase,α-amylase [1],0.100 M
same,optimal MgCl2 concentration for binding with α-amylase,α-amylase [1],0.120 M
same,IC50,[2]; [5],77.8 µM
same,IC50,[2]; [6],61.3 µM
same,Kd,α-amylase [3],2920 ± 200 µM
same,kon,α-amylase [3],2.76 ± 6 M⁻¹ s⁻¹
same,koff,α-amylase [3],0.008 ± 0.00015 s⁻¹
same,Ki,α-amylase [4],39.7 µM
same,Inhibitory type,α-amylase [4],Noncompetitive
COc1ccc(-c2cc(=O)c3c(O)cc(O[C@@H]4O[C@H](CO[C@@H]5O[C@@H](C)[C@H](O)[C@@H](O)[C@H]5O)[C@@H](O)[C@H](O)[C@H]4O)cc3o2)cc1 [Buddleoside],optimal CaCl2 concentration for binding with α-amylase,α-amylase [1],0.100 M
same,optimal MgCl2 concentration for binding with α-amylase,α-amylase [1],0.120 M
same,Inhibition (%) of antioxidant activity by binding to α-amylase,[2],21.65 ± 0.04^a %
same,IC50,[2]; [5],79.13 ± 0.012 µM
same,IC50,[2]; [6],65.05 ± 0.02 µM
same,Kd,α-amylase [3],3300 ± 80 µM
same,kon,α-amylase [3],2.54 ± 0.2 M⁻¹ s⁻¹
same,koff,α-amylase [3],0.0083 ± 0.00015 s⁻¹
same,Ki,α-amylase [4],43.5 µM
same,Inhibitory type,α-amylase [4],Noncompetitive
